In US12247004B2, “2-amino-N-(amino-oxo-aryl-lambda6-sulfanylidene)acetamide compounds and their therapeutic use” (Oxford Drug Design Limited, priority 2019, dated 2025):
Converted amounts (≈) assume the structure as drawn. Structures can show the parent of a compound that is named as a salt. Where two headings read alike, the source gives them in different places.

How the values were obtained:
[1] = molecular target: Leucyl-tRNA synthetase (LeuRS) (Escherichia coli (strain K12), UniProt P07813); assay: Leucyl-tRNA synthetase enzyme inhibition (AMP-Glo; single point % inhibition at 100 μM and IC50); assay type: biochemical
Sequence of Leucyl-tRNA synthetase (LeuRS) (P07813 whole entry, looked up): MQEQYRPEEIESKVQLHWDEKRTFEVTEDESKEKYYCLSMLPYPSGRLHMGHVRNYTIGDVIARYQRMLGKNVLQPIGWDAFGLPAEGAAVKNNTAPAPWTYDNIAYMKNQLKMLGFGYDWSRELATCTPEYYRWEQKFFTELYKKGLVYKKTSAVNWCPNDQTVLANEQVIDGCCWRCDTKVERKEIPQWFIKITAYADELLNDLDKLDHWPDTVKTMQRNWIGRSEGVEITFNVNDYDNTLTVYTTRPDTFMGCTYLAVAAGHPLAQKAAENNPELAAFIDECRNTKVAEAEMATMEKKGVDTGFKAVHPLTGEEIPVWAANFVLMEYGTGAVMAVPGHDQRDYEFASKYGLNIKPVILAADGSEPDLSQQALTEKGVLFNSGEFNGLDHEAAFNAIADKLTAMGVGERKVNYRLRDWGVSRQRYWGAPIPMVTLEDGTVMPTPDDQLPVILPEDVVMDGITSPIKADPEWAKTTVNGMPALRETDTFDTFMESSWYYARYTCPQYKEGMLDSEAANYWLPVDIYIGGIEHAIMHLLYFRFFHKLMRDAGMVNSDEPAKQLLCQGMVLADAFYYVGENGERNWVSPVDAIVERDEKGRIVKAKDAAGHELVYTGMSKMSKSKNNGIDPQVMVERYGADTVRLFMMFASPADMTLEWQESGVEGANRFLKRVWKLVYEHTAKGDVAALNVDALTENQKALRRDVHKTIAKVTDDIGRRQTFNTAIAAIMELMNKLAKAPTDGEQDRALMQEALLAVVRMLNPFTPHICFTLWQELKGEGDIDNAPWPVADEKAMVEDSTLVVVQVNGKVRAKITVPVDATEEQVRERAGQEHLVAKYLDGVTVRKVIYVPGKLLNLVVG
From the text: Study 1—Enzyme Inhibition
The aminoacylation reaction catalyzed by aminoacyl-tRNA synthetases (aaRS) takes place in two steps. In the first step, aaRS activates its cognate amino acid with ATP; and in the second step the activated amino acid is loaded to its corresponding tRNA. This reaction can be summarized as follows: aaRS+aa+ATP=aaRS-aa-AMP+PPi aaRS-aa-AMP+tRNA=aa-tRNA+AMP+aaRS
wherein: aaRS, aminoacyl-tRNA synthetase; aa, amino acid; aaRS-aa-AMP, enzyme-bound to aminoacyl-adenylate; AMP, adenosine monophosphate; aa-tRNA, aminoacyl-tRNA, PPi, inorganic pyrophosphate.
a. Single Point Percentage Inhibition
The activity of the pathogenic aaRSs was monitored by measuring AMP production using the commercial kit AMP-Glo (Promega, Madison, USA).
Ligand stock solutions were prepared in 100% DMSO at 10 mM concentration. An assay buffer consisting of 100 mM Tris HCl pH 7.6, 40 mM MgCl, 20 mM KCl and 150 mM NaCl was prepared in dH2O.
Using the same enzymatic assay in a 384-well plate format, ten point concentration response curves were generated for each compound using a top concentration of 10 μM. The known inhibitor LeuAMS was used as a positive control for the LeuRS assay. 100% DMSO was used as a negative control. The IC50 was calculated based on non-linear regression analysis.

[2] = Human cell viability / cytotoxicity (CellTiter-Glo, 24 hours); assay type: cell-based; settings: human, HepG2 cells (ATCC HB-8065); HepG2 ATCC HB-8065, 24 hours; read-out: Cytotoxicity in HepG2 ATCC HB-8065 Cell Line, IC50
Method: Study 3—Human Cell Viability
Compounds were assessed for potential non-specific cytotoxic effects against a human hepatic cell line (HepG2 ATCC HB-8065). 96-well plates were seeded with HepG2 cells in concentration of 15,000 cells per well in 100 μL of MEM growth media completed with 1% NEAA and 1% sodium pyruvate. Border wells were filled with 100 μL of sterile PBS. Two days upon cells incubation, the compounds were added. Compound dilutions were prepared in 96-well V-bottom plate in pure DMSO. Growth media from 5 plates were aspirated and replaced with 98.7 μL of fresh growth media. 1.28 μL of compounds prepared in V-bottom plates were transferred with multichannel pipette into test plates (78.1× dilution). Final DMSO concentration was 1.28% per well. In control wells, 1.28 μL of DMSO was added in 98.7 μL of media. Compounds were tested in duplicates. Cells were incubated with compounds for 24 hours when cell viability was assessed by measuring ATP levels. ATP levels were measured by adding 50 μL of CellTiter-Glo reagent to each well and after 5 minutes of incubation luminescence was measured with SpectraMax i3. The potential effect of tested compounds on cell viability was determined by comparing the signal obtained in presence of different concentrations of the compounds with those obtained in the presence of DMSO only. The potential effects were then calculated and presented as IC50 values (μg/mL).

[3] = system: bacteria (ATCC reference strains); assay: Antibacterial activity, MIC by broth micro-dilution (CLSI)
[4] = E. coli LeuRS, read-out: Enzyme Inhibition - IC50, E. coli LeuRS
[5] = Acinetobacter baumannii, read-out: Antibacterial Activity (MIC), E = A. baumannii B1931
[6] = Enterobacter cloacae, read-out: Antibacterial Activity (MIC), B = Enterobacter cloacae B1966
[7] = Escherichia coli, ATCC25922, read-out: Antibacterial Activity (MIC), A = E. coli ATCC 25922
[8] = Haemophilus influenzae, ATCC49247, read-out: Antibacterial Activity (MIC), F = H. influenzae ATCC 49247
[9] = Klebsiella pneumoniae, ATCC700603, read-out: Antibacterial Activity (MIC), C = K. pneumoniae ATCC 700603
[10] = Pseudomonas aeruginosa, ATCC27853, read-out: Antibacterial Activity (MIC), D = P. aeruginosa ATCC 27853
[11] = Escherichia coli, BAA2469, read-out: Antibacterial Activity (MIC), G = E. coli BAA-2469

Row | SMILES | IC50 [1] [nM] | IC50 at 24 h [2] [µg/mL] | IC50 [1, 4] [nM] | further results
1 | CC(C)C[C@H](N)C(=O)N=S(N)(=O)c1csc(Cl)c1 (mixture of isomers) [ANASIA-099] | 72.2 | > 64 | – | –
2 | CC(C)C[C@H](N)C(=O)N=[S@](N)(=O)c1cccs1.Cl (single isomer, unassigned) [ANASIA-007-1, (S)-2-amino-N—((S)-amino(oxo)(thiophen-2-yl)-λ6-sulfanylidene)-4-methylpentanamide hydrochloride] | – | > 64 | 63.3 | –
3 | CC(C)C[C@H](N)C(=O)N=S(N)(=O)c1cccc(Cl)c1F (stereo partly drawn) [ANASIA-001, (2S)-2-amino-N-(amino(3-chloro-2-fluorophenyl)(oxo)-λ6-sulfanylidene)-4-methylpentanamide 2,2,2-trifluoroacetate] | – | > 64 | 429 | MIC [3, 5]: > 64 µg/mL; MIC [3, 6]: > 64 µg/mL; MIC [3, 7]: 32 µg/mL (≈ 99.4 µM); MIC [3, 8]: > 64 µg/mL; MIC [3, 9]: > 64 µg/mL; MIC [3, 10]: > 64 µg/mL
4 | CC(C)C[C@H](N)C(=O)N=[S@](N)(=O)c1cccc(Cl)c1F.Cl [ANASIA-001-1] | 535 | > 64 | – | MIC [3, 5]: > 64 µg/mL; MIC [3, 6]: > 64 µg/mL; MIC [3, 7]: 16 µg/mL; MIC [3, 8]: 32 µg/mL; MIC [3, 9]: > 64 µg/mL; MIC [3, 10]: > 64 µg/mL
5 | CC(C)C[C@H](N)C(=O)N=[S@@](N)(=O)c1cccc(Cl)c1F [ANASIA-001-2] | – | > 64 | 3530 | –
6 | CC(C)C[C@H](N)C(=O)N=[S@@](N)(=O)c1ccccc1 [ANASIA-003-2, (S)-2-amino-N—((R)-amino(oxo)(phenyl)-λ6-sulfanylidene)-4-methylpentanamide hydrochloride] | – | > 64 | 2260 | –
7 | Cc1cccc([S@@](N)(=O)=NC(=O)[C@@H](N)CC(C)C)c1 [ANASIA-005-1] | 3030 | > 64 | – | –
8 | CC(C)C[C@H](N)C(=O)N=[S@@](N)(=O)c1ccsc1 [ANASIA-008-2] | – | > 64 | 2000 | –
9 | CC(C)C[C@H](N)C(=O)N=[S@](N)(=O)c1ccc(Cl)s1 [ANASIA-009-1] | 1830 | > 64 | – | –
10 | CC(C)C[C@H](N)C(=O)N=[S@](N)(=O)c1cccc(F)c1 [ANASIA-011-1] | – | > 64 | – | –
11 | CC(C)C[C@H](N)C(=O)N=[S@@](N)(=O)c1cccc(F)c1 [ANASIA-011-2] | – | > 64 | – | –
12 | CC(C)C[C@H](N)C(=O)N=S(N)(=O)c1cccc(F)c1 (some centres unmarked) [ANASIA-011] | – | > 64 | – | –
13 | CC(C)C[C@H](N)C(=O)N=[S@@](N)(=O)c1sccc1Cl [ANASIA-012-2] | – | > 64 | 3230 | –
14 | CC(C)C[C@H](N)C(=O)N=S(N)(=O)c1ccc2ccccc2c1 (some centres unmarked) [ANASIA-013] | – | > 64 | 3570 | –
15 | Cc1ccc([S@](N)(=O)=NC(=O)[C@@H](N)CC(C)C)s1 [ANASIA-014-2] | – | > 64 | 3980 | –
16 | Cc1ccsc1[S@](N)(=O)=NC(=O)[C@@H](N)CC(C)C [ANASIA-015-2] | – | > 64 | 1860 | –
17 | CC(C)C[C@H](N)C(=O)N=[S@](N)(=O)c1cccc2ccccc12 [ANASIA-016-1] | 2200 | > 64 | – | –
18 | CC(C)C[C@H](N)C(=O)N=[S@@](N)(=O)c1cccc2ccccc12 [ANASIA-016-2] | – | > 64 | 5560 | –
19 | CC(C)C[C@H](N)C(=O)N=S(N)(=O)c1cccc2ccccc12 (some centres unmarked) [ANASIA-016] | – | > 64 | 3040 | –
20 | CC(C)C[C@H](N)C(=O)N=[S@](N)(=O)c1ccc(C(F)F)s1.Cl [ANASIA-017-1] | – | > 64 | – | MIC [3, 5]: > 64 µg/mL; MIC [3, 7]: 4 µg/mL; MIC [3, 11]: 22.6 µg/mL; MIC [3, 8]: 4 µg/mL; MIC [3, 9]: > 256 µg/mL; MIC [3, 10]: > 64 µg/mL
21 | CC(C)C[C@H](N)C(=O)N=[S@](N)(=O)c1cccc(-c2ccccc2)c1 [ANASIA-018-1] | 223 | > 64 | – | –
22 | CC(C)C[C@H](N)C(=O)N=[S@@](N)(=O)c1cccc(-c2ccccc2)c1 [ANASIA-018-2] | – | > 64 | 2970 | –
23 | CC(C)C[C@H](N)C(=O)N=S(N)(=O)c1ccc(Cl)c2ccccc12 (some centres unmarked) [ANASIA-019] | – | > 64 | 2260 | –

Row | SMILES | IC50 [1] [nM] | IC50 at 24 h [2] [µg/mL] | IC50 [1, 4] [nM] | further results
24 | CC(C)C[C@H](N)C(=O)N=[S@](N)(=O)c1ccc(F)c2ccccc12 [ANASIA-020-1] | 2050 | > 64 | – | –
25 | CC(C)C[C@H](N)C(=O)N=[S@@](N)(=O)c1ccc(F)c2ccccc12 [ANASIA-020-2] | – | > 64 | 4090 | –
26 | Cc1ccc([S@@](N)(=O)=NC(=O)[C@@H](N)CC(C)C)cc1 [ANASIA-021-1] | 2060 | > 64 | – | –
27 | COc1ccc([S@@](N)(=O)=NC(=O)[C@@H](N)CC(C)C)cc1C [ANASIA-022-1] | 6570 | > 64 | – | –
28 | CC(C)C[C@H](N)C(=O)N=S(N)(=O)c1cc2ccccc2s1 (some centres unmarked) [ANASIA-023] | 1290 | > 64 | – | –
29 | CC(C)C[C@H](N)C(=O)N=[S@@](N)(=O)c1cc(F)ccc1F [ANASIA-024-2] | – | > 64 | 6280 | –
30 | CC(C)C[C@H](N)C(=O)N=[S@](N)(=O)c1c(F)cccc1F [ANASIA-026-1] | 564 | > 64 | – | –
31 | CC(C)C[C@H](N)C(=O)N=[S@@](N)(=O)c1c(F)cccc1F [ANASIA-026-2] | – | > 64 | 4420 | –
32 | Cc1cc(F)ccc1[S@@](N)(=O)=NC(=O)[C@@H](N)CC(C)C [ANASIA-027-1] | 4530 | > 64 | – | –
33 | CC[C@H](C)[C@H](N)C(=O)N=S(N)(=O)c1ccc2ccccc2c1 (some centres unmarked) [ANASIA-030] | – | > 64 | – | –
34 | Cc1cnc(S(N)(=O)=NC(=O)[C@@H](N)CC(C)C)s1 (some centres unmarked) [ANASIA-039] | – | > 64 | 8830 | –
35 | CC(C)C[C@H](N)C(=O)N=[S@](N)(=O)c1ccc(Cl)cc1 [ANASIA-040-1] | 2540 | > 64 | – | –
36 | CC(C)C[C@H](N)C(=O)N=[S@@](N)(=O)c1cccc(C#N)c1 [ANASIA-041-2] | – | > 64 | 832 | –
37 | CC(C)C[C@H](N)C(=O)N=[S@](N)(=O)c1ccc(Cl)c(Cl)c1 [ANASIA-042-1] | 1110 | > 64 | – | –
38 | CC(C)C[C@H](N)C(=O)N=[S@@](N)(=O)c1ccc(Cl)c(Cl)c1 [ANASIA-042-2] | – | > 64 | 7920 | –
39 | CC(C)C[C@H](N)C(=O)N=[S@@](N)(=O)c1cccc(C(C)C)c1 [ANASIA-043-2] | – | > 64 | 735 | –
40 | CC(C)C[C@H](N)C(=O)N=[S@@](N)(=O)c1cccc(Cl)c1Cl [ANASIA-046-2] | 2570 | > 64 | – | –
41 | CC(C)C[C@H](N)C(=O)N=[S@@](N)(=O)c1cccc(Oc2ccc(Cl)cc2)c1 [ANASIA-047-2] | – | 45.3 (≈ 114 µM) | 1290 | –
42 | CC(C)C[C@H](N)C(=O)N=[S@](N)(=O)c1cccc(C(C)(C)C)c1 [ANASIA-049-1] | 296 | > 64 | – | –
43 | CC(C)C[C@H](N)C(=O)N=[S@](N)(=O)c1cccc(-c2cccc(F)c2)c1 [ANASIA-051-1, (S)-2-amino-N—((S)-amino(3′-fluoro-[1,1′-biphenyl]-3-yl)(oxo)-λ6-sulfanylidene)-4-methylpentanamide hydrochloride] | 601 | > 64 | – | –
44 | CC(C)C[C@H](N)C(=O)N=[S@@](N)(=O)c1csc(C#N)c1.Cl [ANASIA-135-2] | – | – | 262 | MIC [3, 7]: 8 µg/mL; MIC [3, 11]: 64 µg/mL; MIC [3, 9]: > 256 µg/mL
45 | CC(C)C[C@H](N)C(=O)N=[S@](N)(=O)c1cc(C#N)cs1.Cl [ANASIA-136-1] | 71.8 | – | – | MIC [3, 7]: 8 µg/mL; MIC [3, 11]: > 64 µg/mL; MIC [3, 9]: > 256 µg/mL
